Reference: patent publication US20230263822A1, “MODULATION OF FACTOR 11 EXPRESSION” (Ionis Pharmaceuticals, Inc., priority 2008, published 2023)
Strand notation (5' to 3'): a small letter for the sugar, then the base; units joined by * are phosphorothioate-linked, units joined directly phosphodiester-linked; [ ] holds rarer units or linkages, { } end groups; capitals alone tell only the bases. e = 2'-O-(2-methoxyethyl) (MOE); [5mC] = 5-methylcytosine; d = 2'-deoxy (DNA)

system: human Factor 11 mRNA; assay: Antisense inhibition of human Factor 11 in HepG2 cells, lipofectin, 75 nM (Example 1); format: cell-based; conditions: 75 nM antisense oligonucleotide, ~24 h, relative to untreated control cells, gapmers targeted to SEQ ID NO: 1
Procedure: Antisense oligonucleotides targeted to a Factor 11 nucleic acid were tested for their effects on Factor 11 mRNA in vitro. Cultured HepG2 cells at a density of 10,000 cells per well were transfected using lipofectin reagent with 75 nM antisense oligonucleotide. After a treatment period of approximately 24 hours, RNA was isolated from the cells and Factor 11 mRNA levels were measured by quantitative real time PCR. Factor 11 mRNA levels were adjusted according to total RNA content, as measured by RIBOGREEN. Results are presented as percent inhibition of Factor 11, relative to untreated control cells.
The chimeric antisense oligonucleotides in Tables 1 and 2 were designed as 5-10-5 MOE gapmers. The gapmers are 20 nucleotides in length, wherein the central gap segment is comprised of 10 2′-deoxynucleotides and is flanked on both sides (in the 5′ and 3′ directions) by wings comprising 5 nucleotides each. Each nucleotide in the 5′ wing segment and each nucleotide in the 3′ wing segment has a 2′-MOE modification. The internucleoside linkages throughout each gapmer are phosphorothioate (P=S) linkages. All cytidine residues throughout each gapmer are 5-methylcytidines. “Target start site” indicates the 5′-most nucleotide to which the gapmer is targeted. “Target stop site” indicates the 3′-most nucleotide to which the gapmer is targeted. Each gapmer listed in Table 1 is targeted to SEQ TD NO: 1 (GENBANK Accession No. NM_000128.3) and each gapmer listed in Table 2 is targeted to SEQ TD NO: 2 (GENBANK Accession No. NT_022792.17, truncated from 19598000 to 19624000).

Substance	% inhibition [%]
412201 (antisense e[5mC]*eA*eT*eT*eG*d[5mC]*dT*dT*dG*dA*dA*dA*dG*dA*dA*eT*eA*e[5mC]*e[5mC]*e[5mC]) [compound 412201]	66
412234 (antisense eG*eT*eT*eT*e[5mC]*d[5mC]*dA*dA*dT*dG*dA*dT*dG*dG*dA*eG*e[5mC]*e[5mC]*eT*e[5mC]) [compound 412234]	60
412258 (antisense eG*eT*eG*eT*eA*dG*dA*dT*dT*d[5mC]*d[5mC]*dT*dG*d[5mC]*dA*eA*eA*eA*eT*eG) [compound 412258]	44
413497 (antisense eG*eA*eT*eT*e[5mC]*d[5mC]*dT*dG*d[5mC]*dA*dA*dA*dA*dT*dG*eG*eT*eG*eA*eA) [compound 413497]	39
412248 (antisense e[5mC]*e[5mC]*eA*eG*eA*dT*dG*d[5mC]*d[5mC]*dA*dG*dA*d[5mC]*d[5mC]*dT*e[5mC]*eA*eT*eT*eG) [compound 412248]	53
412191 (antisense eT*eT*eA*eA*eA*dA*dT*d[5mC]*dT*dT*dA*dG*dT*dA*dT*eG*eT*e[5mC]*eA*eG) [compound 412191]	14
412197 (antisense eA*e[5mC]*eA*e[5mC]*eA*dT*dT*d[5mC]*dA*d[5mC]*d[5mC]*dA*dG*dA*dA*eA*e[5mC]*eT*eG*eA) [compound 412197]	45
413488 (antisense eA*e[5mC]*eA*eG*eG*dT*dG*dT*d[5mC]*dT*d[5mC]*dT*dG*dA*dG*eT*eG*eG*eG*eT) [compound 413488]	49
412236 (antisense e[5mC]*e[5mC]*eA*eT*eA*dG*dA*dA*dA*d[5mC]*dA*dG*dT*dG*dA*eG*e[5mC]*eG*eG*e[5mC]) [compound 412236]	72
412263 (antisense eT*eG*eA*eA*eA*dG*d[5mC]*dT*dA*dT*dG*dT*dG*dG*dT*eG*eA*e[5mC]*eA*eA) [compound 412263]	33
412190 (antisense eA*eG*eT*eA*eT*dG*dT*d[5mC]*dA*dG*dA*dA*dA*dT*dA*eT*eA*e[5mC]*e[5mC]*eT) [compound 412190]	24
413462 (antisense eA*eT*e[5mC]*eT*eT*dA*dG*dT*dA*dT*dG*dT*d[5mC]*dA*dG*eA*eA*eA*eT*eA) [compound 413462]	12
412219 (antisense eG*eG*e[5mC]*eA*eG*dA*dA*d[5mC]*dA*d[5mC]*dT*dG*dG*dG*dA*eT*eG*e[5mC]*eT*eG) [compound 412219]	56
412250 (antisense eT*eG*eG*e[5mC]*eA*d[5mC]*dA*dG*dT*dG*dA*dA*d[5mC]*dT*d[5mC]*eA*eA*e[5mC]*eA*e[5mC]) [compound 412250]	63
412188 (antisense eT*eG*eA*eG*eA*dG*dA*dA*dT*dT*dG*d[5mC]*dT*dT*dG*e[5mC]*eT*eT*eT*e[5mC]) [compound 412188]	21
412217 (antisense eA*eA*eT*e[5mC]*e[5mC]*dA*d[5mC]*dT*d[5mC]*dT*d[5mC]*dA*dG*dA*dT*eG*eT*eT*eT*eT) [compound 412217]	47

Substance	% inhibition [%]
412233 (antisense eT*eG*eT*e[5mC]*eT*d[5mC]*dT*dG*dA*dG*dT*dG*dG*dG*dT*eG*eA*eG*eG*eT) [compound 412233]	64
412221 (antisense eA*eT*e[5mC]*eA*eG*dT*dG*dT*d[5mC]*dA*dT*dG*dG*dT*dA*eA*eA*eA*eT*eG) [compound 412221]	48
412228 (antisense eA*eT*eG*eT*eG*dT*dA*dT*d[5mC]*d[5mC]*dA*dG*dA*dG*dA*eT*eG*e[5mC]*e[5mC]*eT) [compound 412228]	71
412196 (antisense eT*eG*eA*eT*eA*dT*dA*dA*dG*dA*dA*dA*dA*dT*d[5mC]*eA*eT*e[5mC]*e[5mC]*eT) [compound 412196]	25
413466 (antisense eA*e[5mC]*eA*eT*eA*dA*dA*dT*dG*dT*d[5mC]*dT*dT*dT*dG*eT*eT*eG*e[5mC]*eA) [compound 413466]	79
412261 (antisense eT*e[5mC]*e[5mC]*e[5mC]*eA*dA*dG*dA*dT*dA*dT*dT*dT*dT*dA*eA*eA*eT*eA*eA) [compound 412261]	3
413490 (antisense e[5mC]*eT*eA*e[5mC]*e[5mC]*d[5mC]*d[5mC]*dA*dT*dA*dG*dA*dA*dA*d[5mC]*eA*eG*eT*eG*eA) [compound 413490]	57
413487 (antisense eA*eA*e[5mC]*eG*eA*dT*d[5mC]*d[5mC]*dT*dG*dG*dG*d[5mC]*dT*dT*eG*eA*eT*eT*eT) [compound 413487]	57
413492 (antisense eA*eG*eA*e[5mC]*eA*d[5mC]*dG*d[5mC]*dA*dA*dA*dA*dT*d[5mC]*dT*eT*eA*eG*eG*eT) [compound 413492]	68
412210 (antisense eT*eG*e[5mC]*eA*e[5mC]*dA*dG*dG*dA*dT*dT*dT*d[5mC]*dA*dG*eT*eG*eA*eA*eA) [compound 412210]	73
413473 (antisense eA*eG*e[5mC]*e[5mC]*eA*dG*dA*dT*dT*dA*dG*dA*dA*dA*dG*eT*eG*e[5mC]*eA*e[5mC]) [compound 413473]	80
412253 (antisense eA*eA*eA*eT*eA*dT*dT*dG*d[5mC]*d[5mC]*dT*dT*dA*dT*dG*eG*eT*eA*eA*eT) [compound 412253]	20
413478 (antisense eA*eG*eA*eA*eT*dG*dG*d[5mC]*dA*dG*dA*dA*d[5mC]*dA*d[5mC]*eT*eG*eG*eG*eA) [compound 413478]	53
412247 (antisense eT*eA*eG*e[5mC]*e[5mC]*dG*dG*d[5mC]*dA*d[5mC]*dA*dG*dA*dT*d[5mC]*eA*eT*e[5mC]*eT*eT) [compound 412247]	75
412245 (antisense eG*eT*e[5mC]*eA*e[5mC]*dT*dA*dA*dG*dG*dG*dT*dA*dT*d[5mC]*eT*eT*eG*eG*e[5mC]) [compound 412245]	75

same assay, conditions: 75 nM antisense oligonucleotide, ~24 h, relative to untreated control cells, gapmers targeted to SEQ ID NO: 2

Substance	% inhibition [%]
413511 (antisense eT*eG*e[5mC]*e[5mC]*eA*dA*dT*dT*dT*dA*dA*dA*dA*dG*dT*eG*eT*eA*eG*e[5mC]) [compound 413511]	43
413522 (antisense eT*e[5mC]*eA*eA*eG*dA*dG*dT*d[5mC]*dT*dT*d[5mC]*dA*dT*dG*e[5mC]*eT*eA*e[5mC]*e[5mC]) [compound 413522]	42
413512 (antisense eA*eT*eA*eT*eT*dT*d[5mC]*dA*dA*dA*dA*dT*d[5mC]*d[5mC]*dA*eG*eT*eA*eT*eG) [compound 413512]	39
413528 (antisense eT*eT*eA*eA*eG*dT*dT*dA*d[5mC]*dA*dT*dT*dG*dT*dA*eG*eA*e[5mC]*e[5mC]*eA) [compound 413528]	48
413521 (antisense e[5mC]*eT*eG*eG*eG*dA*dA*dG*dG*dT*dG*dA*dA*dT*dT*eT*eT*eT*eA*eG) [compound 413521]	62
413516 (antisense e[5mC]*e[5mC]*eA*eG*e[5mC]*dT*dA*dT*d[5mC]*dA*dG*dG*dA*dA*dA*eA*eT*eT*e[5mC]*e[5mC]) [compound 413516]	50
413509 (antisense eT*e[5mC]*eA*eG*eG*dA*d[5mC]*dA*d[5mC]*dA*dA*dG*dT*dA*dA*eA*e[5mC]*e[5mC]*eT*eG) [compound 413509]	66
413510 (antisense eT*eG*e[5mC]*eA*eA*dG*d[5mC]*dT*dG*dG*dA*dA*dA*dT*dA*eA*eA*eA*eG*e[5mC]) [compound 413510]	17
413518 (antisense eA*eT*eG*eG*eA*dA*dT*d[5mC]*dT*d[5mC]*dT*dT*d[5mC]*dA*dT*eT*eT*e[5mC]*eA*eT) [compound 413518]	49
413519 (antisense eA*eT*eG*eG*eA*dG*dA*d[5mC]*dA*dT*dT*d[5mC]*dA*dT*dT*eT*e[5mC]*e[5mC]*eA*e[5mC]) [compound 413519]	59
413505 (antisense eT*eG*eG*eG*eA*dA*dA*dG*d[5mC]*dT*dT*dT*d[5mC]*dA*dA*eT*eA*eT*eT*e[5mC]) [compound 413505]	57
413532 (antisense eA*eG*eG*eG*eA*dA*dT*dA*dA*d[5mC]*dA*dT*dG*dA*dA*eG*eG*e[5mC]*e[5mC]*e[5mC]) [compound 413532]	32
413501 (antisense eT*eT*eA*eG*eT*dT*dT*dA*d[5mC]*dT*dG*dA*d[5mC]*dA*d[5mC]*eT*eA*eA*eG*eA) [compound 413501]	23
413524 (antisense eG*eA*e[5mC]*eA*eT*dT*dA*dT*dA*d[5mC]*dT*d[5mC]*dA*d[5mC]*d[5mC]*eA*eT*eT*eA*eT) [compound 413524]	7
413502 (antisense e[5mC]*eT*eG*e[5mC]*eT*dT*dT*dA*dT*dG*dA*dA*dA*dA*dA*e[5mC]*e[5mC]*eA*eA*e[5mC]) [compound 413502]	22
